From EP0259782A1, “Naphthalene and indane derivatives, medicaments containing these compounds and processes for their preparation” (Dr. Karl Thomae GmbH, priority 1986, dated 1988) come the findings set out here.

In one data set the test system is Herzfrequenz an Ratten. The data set is described as follows: Effect on heart rate in anaesthetised rats. The format is in vivo. The conditions noted are these: rats anaesthetised with pentobarbital; dose 5,0 mg/kg injected into the Vena jugularis; 5 minutes after application; control heart rate 350-400 S/min; 2 rats per dose. As for the experimental part: Wirkung auf die Herzfrequenz an Ratten: Die Wirkung der zu untersuchenden Substanzen auf die Herzfrequenz wurde pro Dosis an 2 Ratten mit einem durchschnittlichen Gewicht von 250-300 g untersucht. Hierzu wurden die Ratten mit Pentobarbital (50 mg/kg i.p. und 10 mg/kg s.c.) narkotisiert. Die zu untersuchenden Substanzen […]ösung in die Vena jugularis injiziert (0,1 ml/100 g). Der Blutdruck wurde über in eine A. carotis eingebundene Kanüle gemessen und die Herzfrequenz wurde aus einem mit Nadelelektroden abgeleiteten EKG (II. oder III. Ableitung) registriert. Die Herzfrequenz der […] 350 und 400 Schlägen/Minuten (S/min).

The subject of a further data set is Mäusen. The conditions noted are these: in vivo, iv, 10 mg/kg. The text has this:
Die erfindungsgemäß hergestellten Verbindungen weisen in therapeutischen Dosen keinerlei toxische Nebenwirkungen auf.

With `COc1ccc(CCN(C)CCCC2Cc3cc(OC)c(OC)cc3C2O)cc1OC` (centres unmarked) [Substanz C, 5,6-Dimethoxy-2-[3-((2-(3,4-dimethoxyphenyl)-ethyl)-methylamino)-propyl]-1-hydroxy-indan], the “Herzfrequenzsenkung, gemessen 5 Minuten nach Substanzapplikation” value in the data set on Herzfrequenz an Ratten came to 152 S/min. The “toxische Nebenwirkungen” value in the data set on Mäusen was “außer einer geringen Sedation keine toxischen Nebenwirkungen”. `COc1ccc(CCN(C)CCCC2CCc3cc(OC)c(OC)cc3C2)cc1OC.Cl` (centres unmarked) [Substanz B, 6,7-Dimethoxy-2-[3-((2-(3,4-dimethoxyphenyl)-ethyl)-methylamino)-propyl]-1,2,3,4-tetrahydro-naphthalin-hydrochlorid]: the “Herzfrequenzsenkung, gemessen 5 Minuten nach Substanzapplikation” value in the data set on Herzfrequenz an Ratten came out at 150 S/min. Take `COc1ccc(CCN(C)CCCC2CCc3cc(OC)c(OC)cc3C2=O)cc1OC` (centres unmarked) [Substanz A, 6,7-Dimethoxy-2-[3-((2-(3,4-dimethoxyphenyl)-ethyl)-methylamino)-propyl]-1-oxo-1,2,3,4-tetrahydro-naphthalin]: in the data set on Herzfrequenz an Ratten, the “Herzfrequenzsenkung, gemessen 5 Minuten nach Substanzapplikation” value is 157 S/min. In addition, in the data set on Mäusen, the “toxische Nebenwirkungen” value was “außer einer geringen Sedation keine toxischen Nebenwirkungen”.
